From patent US10301280B2 (Plexxikon Inc., priority 2012, dated 2019) come the findings set out here.

Chain of c-kit kinase (P10721 26-976): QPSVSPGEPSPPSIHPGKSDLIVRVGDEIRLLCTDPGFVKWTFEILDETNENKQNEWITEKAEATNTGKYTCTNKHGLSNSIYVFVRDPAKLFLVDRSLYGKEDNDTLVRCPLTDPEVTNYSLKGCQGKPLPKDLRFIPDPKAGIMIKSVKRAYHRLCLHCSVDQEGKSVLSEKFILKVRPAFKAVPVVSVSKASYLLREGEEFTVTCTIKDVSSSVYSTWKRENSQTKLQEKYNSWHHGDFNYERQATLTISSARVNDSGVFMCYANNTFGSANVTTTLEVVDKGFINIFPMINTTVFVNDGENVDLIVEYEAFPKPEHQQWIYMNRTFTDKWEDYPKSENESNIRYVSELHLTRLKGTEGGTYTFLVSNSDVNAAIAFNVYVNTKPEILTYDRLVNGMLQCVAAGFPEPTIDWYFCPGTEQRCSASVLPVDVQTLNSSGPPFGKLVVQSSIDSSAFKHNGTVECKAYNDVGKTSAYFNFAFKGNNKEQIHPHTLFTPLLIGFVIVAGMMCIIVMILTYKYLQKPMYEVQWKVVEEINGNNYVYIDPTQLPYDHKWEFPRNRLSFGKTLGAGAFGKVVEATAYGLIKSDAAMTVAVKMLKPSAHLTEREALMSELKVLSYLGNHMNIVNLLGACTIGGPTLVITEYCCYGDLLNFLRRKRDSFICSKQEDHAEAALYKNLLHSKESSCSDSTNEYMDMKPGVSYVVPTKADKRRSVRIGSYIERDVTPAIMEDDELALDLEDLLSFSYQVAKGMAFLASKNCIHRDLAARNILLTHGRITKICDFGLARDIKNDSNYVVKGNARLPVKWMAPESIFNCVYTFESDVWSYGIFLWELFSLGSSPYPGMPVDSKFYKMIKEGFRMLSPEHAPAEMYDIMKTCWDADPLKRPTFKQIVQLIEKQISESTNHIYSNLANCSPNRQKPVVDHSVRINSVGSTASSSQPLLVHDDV

This assay deals with c-kit kinase (Homo sapiens (Human), UniProt P10721). Put plainly: c-Kit biochemical assay (AlphaScreen). The conditions noted are these: c-kit biochemical inhibitory activity. The gist of the method:
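AlphaScreen of biotin-(E4Y)3 (100 nM) phosphorylation by c-kit (0.1 ng) in HEPES pH 7.2, Mg/Mn, 10 μM ATP, 5% DMSO, 1 h at room temperature; variant uses 100 μM ATP, 30 nM biotin-(E4Y)10, 1 ng enzyme. PY20 acceptor/streptavidin donor signal versus 8-point concentration gives IC50.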
Take `O=C(Nc1cnc2[nH]c(-c3ccccc3)cc2c1)c1cccc2n[nH]cc12` [P-2289, N-(2-phenyl-1H-pyrrolo[2,3-b]pyridin-5-yl)-2H-indazole-4-carboxamide]: the 50% inhibitory concentration (IC50) was in the range of 0.0001 to 1 µM.
Then `Cc1cccnc1C(=O)Nc1cnc2[nH]c(-c3ccccc3)cc2c1` [P-2016, 3-methyl-N-(2-phenyl-1H-pyrrolo[2,3-b]pyridin-5-yl)pyridine-2-carboxamide], with 1 to 10 µM; and `Cc1n[nH]c(C(=O)Nc2cnc3[nH]c(-c4ccc(F)nc4F)cc3c2)c1C` [P-2280, N-[2-(2,6-difluoro-3-pyridyl)-1H-pyrrolo[2,3-b]pyridin-5-yl]-3,4-dimethyl-1H-pyrazole-5-carboxamide], with 10 to 200 µM; and `Cc1cc(-c2cc3cc(NC(=O)c4[nH]nc(C)c4C)cnc3[nH]2)cnc1C` [P-2282, N-[2-(5,6-dimethyl-3-pyridyl)-1H-pyrrolo[2,3-b]pyridin-5-yl]-3,4-dimethyl-1H-pyrazole-5-carboxamide], with 1 to 10 µM.
In turn, `Cc1n[nH]c(C(=O)Nc2ccc(Nc3ccccc3)nc2)c1C` [P-2045, N-(6-anilino-3-pyridyl)-3,4-dimethyl-1H-pyrazole-5-carboxamide] had an IC50 of 10 to 200 µM.
`Cc1n[nH]c(C(=O)Nc2cnc3[nH]c(-c4c(C)n[nH]c4C)cc3c2)c1C` [P-2167, N-[2-(3,5-dimethyl-1H-pyrazol-4-yl)-1H-pyrrolo[2,3-b]pyridin-5-yl]-3,4-dimethyl-1H-pyrazole-5-carboxamide] returned an IC50 of 0.0001 to 1 µM.
Then `Cc1n[nH]c(C(=O)Nc2cnc3[nH]c(-c4cccc(CC(=O)O)c4)cc3c2)c1C` [P-2293, 2-[3-[5-[(3,4-dimethyl-1H-pyrazole-5-carbonyl)amino]-1H-pyrrolo[2,3-b]pyridin-2-yl]phenyl]acetic acid], with 0.0001 to 1 µM; and `Cc1n[nH]c(C(=O)Nc2cnc3[nH]c(-c4ccnc(N5CCN(C(=O)CC#N)CC5)c4)cc3c2)c1C` [P-2189, N-[2-[2-[4-(2-cyanoacetyl)piperazin-1-yl]-4-pyridyl]-1H-pyrrolo[2,3-b]pyridin-5-yl]-3,4-dimethyl-1H-pyrazole-5-carboxamide], with 0.0001 to 1 µM.
`Cc1n[nH]c(C(=O)Nc2cnc(Nc3ccccc3)nc2)c1C` [P-2044, N-(2-anilinopyrimidin-5-yl)-3,4-dimethyl-1H-pyrazole-5-carboxamide] registered a 50% inhibitory concentration (IC50) of 10 to 200 µM.
On to `Cc1cncc(-c2cc3cc(NC(=O)c4[nH]nc(C)c4C)cnc3[nH]2)c1` [P-2184, 3,4-dimethyl-N-[2-(5-methyl-3-pyridyl)-1H-pyrrolo[2,3-b]pyridin-5-yl]-1H-pyrazole-5-carboxamide], for which the half-maximal inhibitory concentration (IC50) was 1 to 10 µM.
As for `CCc1cc(-c2cc3cc(NC(=O)c4[nH]nc(C)c4C)cnc3[nH]2)ccn1` [P-2177, N-[2-(2-ethyl-4-pyridyl)-1H-pyrrolo[2,3-b]pyridin-5-yl]-3,4-dimethyl-1H-pyrazole-5-carboxamide], the figure is 0.0001 to 1 µM; as for `Cc1n[nH]c(C(=O)Nc2cnc3[nH]c(-c4ccnc5c4OCCO5)cc3c2)c1C` [P-2179, N-[2-(2,3-dihydro-[1,4]dioxino[2,3-b]pyridin-8-yl)-1H-pyrrolo[2,3-b]pyridin-5-yl]-3,4-dimethyl-H-pyrazole-5-carboxamide], 1 to 10 µM; as for `CCCS(=O)(=O)Nc1cccc(Nc2ncc(NC(=O)c3[nH]nc(C)c3C)cn2)c1` [P-2052, 3,4-dimethyl-N-[2-[3-(propylsulfonylamino)anilino]pyrimidin-5-yl]-1H-pyrazole-5-carboxamide], 1 to 10 µM.
Then `Cc1n[nH]c(C(=O)Nc2cnc3[nH]c(-c4ccccc4OC(F)(F)F)cc3c2)c1C` [P-2182, 3,4-dimethyl-N-[2-[2-(trifluoromethoxy)phenyl]-1H-pyrrolo[2,3-b]pyridin-5-yl]-1H-pyrazole-5-carboxamide], with 1 to 10 µM.
Then `Cc1noc(C)c1C(=O)Nc1cnc2[nH]c(-c3ccccc3)cc2c1` [P-2013, 3,5-dimethyl-N-(2-phenyl-1H-pyrrolo[2,3-b]pyridin-5-yl)isoxazole-4-carboxamide], with 0.0001 to 1 µM; and `Cc1n[nH]c(C(=O)Nc2cnc3[nH]c(-c4cncc(C#N)c4)cc3c2)c1C` [P-2270, N-[2-(5-cyano-3-pyridyl)-1H-pyrrolo[2,3-b]pyridin-5-yl]-3,4-dimethyl-1H-pyrazole-5-carboxamide], with 10 to 200 µM; and `Cc1n[nH]c(C(=O)Nc2cnc3[nH]ccc3c2)c1C` [P-2032, 3,4-dimethyl-N-(1H-pyrrolo[2,3-b]pyridin-5-yl)-1H-pyrazole-5-carboxamide], with 10 to 200 µM.
Molecule `Cc1nn(C2CNC2)cc1-c1cc2cc(NC(=O)c3[nH]nc(C)c3C)cnc2[nH]1` [P-2286, N-[2-[1-(azetidin-3-yl)-3-methyl-pyrazol-4-yl]-1H-pyrrolo[2,3-b]pyridin-5-yl]-3,4-dimethyl-1H-pyrazole-5-carboxamide] yielded a 50% inhibitory concentration (IC50) of 0.0001 to 1 µM.
Then `Cc1n[nH]c(C(=O)Nc2cnc3[nH]c(-c4cnc(N5CCN(C)CC5)nc4)cc3c2)c1C` [P-2160, 3,4-dimethyl-N-[2-[2-(4-methylpiperazin-1-yl)pyrimidin-5-yl]-1H-pyrrolo[2,3-b]pyridin-5-yl]-1H-pyrazole-5-carboxamide], with 1 to 10 µM; and `Cc1cc(C(=O)Nc2cnc3[nH]c(-c4ccc(F)cc4)cc3c2)[nH]n1` [P-2019, N-[2-(4-fluorophenyl)-1H-pyrrolo[2,3-b]pyridin-5-yl]-3-methyl-1H-pyrazole-5-carboxamide], with 10 to 200 µM.
Then `CCn1nccc1S(=O)(=O)Nc1cnc2[nH]c(-c3ccc(F)cc3)cc2c1` [P-2030, 2-ethyl-N-[2-(4-fluorophenyl)-1H-pyrrolo[2,3-b]pyridin-5-yl]pyrazole-3-sulfonamide], with 1 to 10 µM; and `Cc1ccc(-c2cc3cc(NC(=O)c4[nH]nc(C)c4C)cnc3[nH]2)c(C)c1` [P-2181, N-[2-(2,4-dimethylphenyl)-1H-pyrrolo[2,3-b]pyridin-5-yl]-3,4-dimethyl-1H-pyrazole-5-carboxamide], with 10 to 200 µM.
For `Cc1n[nH]c(C(=O)Nc2cnc3[nH]c(-c4ccccc4C(F)(F)F)cc3c2)c1C` [P-2180, 3,4-dimethyl-N-[2-[2-(trifluoromethyl)phenyl]-1H-pyrrolo[2,3-b]pyridin-5-yl]-1H-pyrazole-5-carboxamide], the IC50 was 1 to 10 µM.
Then `CC(=O)Nc1cccc(C(=O)Nc2cnc3[nH]c(-c4ccc(F)cc4)cc3c2)c1` [P-2026, 3-acetamido-N-[2-(4-fluorophenyl)-1H-pyrrolo[2,3-b]pyridin-5-yl]benzamide], with 0.0001 to 1 µM; and `O=C(Nc1cnc2[nH]c(-c3ccc(F)cc3)cc2c1)c1n[nH]c2c1CCCC2` [P-2047, N-[2-(4-fluorophenyl)-1H-pyrrolo[2,3-b]pyridin-5-yl]-4,5,6,7-tetrahydro-1H-indazole-3-carboxamide], with 10 to 200 µM; and `Cc1n[nH]c(C(=O)Nc2cnc3[nH]c(-c4cccnc4C(F)(F)F)cc3c2)c1C` [P-2176, 3,4-dimethyl-N-[2-[2-(trifluoromethyl)-3-pyridyl]-1H-pyrrolo[2,3-b]pyridin-5-yl]-1H-pyrazole-5-carboxamide], with 10 to 200 µM.
Then `COc1ccc(-c2cc3cc(NC(=O)c4[nH]nc(C)c4C)cnc3[nH]2)c(C)c1C` [P-2284, N-[2-(4-methoxy-2,3-dimethyl-phenyl)-1H-pyrrolo[2,3-b]pyridin-5-yl]-3,4-dimethyl-1H-pyrazole-5-carboxamide], with 1 to 10 µM; and `O=C(Nc1cnc2[nH]c(-c3ccccc3)cc2c1)c1cn[nH]n1` [P-2015, N-(2-phenyl-1H-pyrrolo[2,3-b]pyridin-5-yl)-2H-triazole-4-carboxamide], with 1 to 10 µM; and `CNC(=O)c1cccc(Nc2ncc(NC(=O)c3[nH]nc(C)c3C)cn2)c1` [P-2054, 3,4-dimethyl-N-[2-[3-(methylcarbamoyl)anilino]pyrimidin-5-yl]-1H-pyrazole-5-carboxamide], with 1 to 10 µM.
